Assay results published in patent publication US11103474B2, “Pharmaceutical parenteral formulation containing carglumic acid” (RECORDATI INDUSTRIA CHIMICA E FARMACEUTICA S.P.A., priority 2016, dated 2021).

Experiment: Preliminary solubility trials (stability of carglumic acid solutions with NaOH, phosphate or HCl)
Assay type: physicochemical
Excerpt: Preliminary solubility trials have been performed using carglumic acid solutions buffered at pH from 5.0 to 5.7 with NaOH (0.5 M) or phosphate; the test were not successful since the solutions were not stable and gave an unknown degradation product (with molecular ion at 159 [m+H]+ detected in HPLC-mass-spectrometry) not present in the solution of carglumic acid in water.

With `NC(=O)N[C@@H](CCC(=O)O)C(=O)O` [carglumic acid, Carglumic acid] the stability of solution (buffered at pH from 5.0 to 5.7 with NaOH (0.5 M) or phosphate, unknown degradation product formed) was “not stable” and the stability of solution (in HCl 0.5 M, up to 24 hours, two known impurities above the accepted limits) was “did not result stable”.
